Test results from patent US9458086B1, “Compositions and methods for adipocyte modulation” (University of South Florida (A Florida Non-Profit …, priority 2013, dated 2016).

Tests used:
[1] = test system: PPARγ; assay: Western blot of PPARγ (adipogenesis marker) in differentiating 3T3L1 cells; format: cell-based, mouse
Procedure: (§1) Mouse 3T3-L1 preadipocytes were purchased from ZenBio™ (Research Triangle Park, N.C., USA) and passaged as preconfluent cultures in DMEM high glucose (Invitrogen, Carlsbad, Calif.) with 10% newborn calf serum (Sigma-Aldrich, St. Louis, Mo.) at 37° C. and 10% CO2. Once confluent, cells were differentiated (day 0) in DMEM high glucose with 10% fetal bovine serum (Atlas Biological, Fort Collins, Colo.), 10 μg/mL bovine insulin (Sigma), […] dexamethasone (Sigma), and 0.5 mM isobutyl-1-methylxanthine (Sigma). On day 2, media was replaced with DMEM high glucose, 10% FBS, and bovine insulin. Day 4 and afterwards, cells were cultured in DMEM high glucose plus 10% FBS.
(§2) Protein lysates were obtained from 3T3L1 cells using lysis buffer containing proteases. Protein lysates (40 μg) were separated by SDS-PAGE with 10% gels. Proteins were electrophoretically transferred to nitrocellulose membranes, blocked with Tris-buffered saline containing 0.1% Tween 20 and 5% nonfat dried milk, washed, and incubated with a polyclonal anti-PARP (Upstate Biotechnology), anti-XIAP (AnaSpec), anti-Bcl2, anti-caspase 9 (Calbiochem), anti-Bcl-x (Santa Cruz Biotechnology), and anti-PKCδ (Cell Signaling) or antibody against the hinge-region of PKCδII (Patel lab (19)). This antibody is specific for PKCδII, as it recognizes the extended hinge region, which is absent in PKCδI (24). Other antibodies used are as follows: PPARγ, Akt, pAkt 473, TNFα, Adiponectin, p-BAD (S316), p-PTEN (Cell Signaling, Boston, Mass.), β-actin A5441 (Sigma). After incubation with anti-rabbit IgG-HRP, enhanced chemiluminescence (Pierce) was used for detection. FluorChem M™ (Protein Simple) imaging system was used to capture digital chemiluminescence images and process western blots. Data was analyzed using AlphaView® software.

[2] = test system: 3T3L1 adipocytes; assay: Apoptosis assay, Annexin V-PI staining by flow cytometry; format: cell-based, mouse
Procedure: as §1
3T3L1 preadipocytes were cultured on 60 mm dishes as described above. For apoptosis assays, cells were serum-starved for 48 hours. Media were collected and cells were washed one time with HBSS and then trypsinized for 5.0 minutes. Five ml complete media was added to neutralize the trypsin. Media and washes were pooled and centrifuged at 1200 RPMS for five minutes. […] 400 μl binding buffer was added and cells were analyzed by flow cytometry within one hour Annexin V-FITC and PI fluorescence, which stains apoptotic cells, were measured using an Accuri C6 flow cytometer.

[3] = test system: PKCδII; assay: Western blot of PKCδII expression in differentiating 3T3L1 cells; format: cell-based, mouse; settings: for inhibition of PKCδII expression levels: 25 μM administered on day 5 (mature adipocyte)
Procedure: as §1, §2

[4] = test system: TNFα; settings: mice, 400 mg resveratrol; earlier studies (23); cited from earlier work
[5] = test system: 3T3L1 preadipocytes; assay: Resveratrol dose finding in differentiating 3T3L1 preadipocytes; format: cell-based, mouse; settings: doses 10 to 100 μM tested, data not shown
Procedure: as §1
Several studies have shown its role in inhibiting adipose cell proliferation, lipid accumulation and stimulation of apoptosis and lipolysis in mature adipocytes. Further, resveratrol is shown to modulate alternative splicing of genes (29). However, its mechanisms of action and target proteins in apoptotic pathways during adipogenesis was not determined. […] Resveratrol treatment administered on day 5 (mature adipcoyte) inhibited PKCδII expression levels by 65% on day 6 and by more than 90% on day 8 (FIG. 7I a, b, c). Simultaneously, up to a 50% increase in PKCδI levels was observed on days 6 and 8.

[6] = test system: PKCδI; assay: PCR of PKCδI in adipose tissue of mice fed resveratrol; format: in vivo, mouse; settings: 400 mg resveratrol per kg body weight in diet, once daily
Procedure: (§3) Total RNA was obtained from mouse adipose tissues from Dr. You (University of South Florida). 8-week old male C57BL/6J (Jackson labs) were either fed a chow diet (control) or diet with added 400 mg resveratrol per kg body weight, once daily 23); n=5. Total RNA was extracted from adipose tissues from these mice. All protocols were reviewed and approved by the Institutional Animal Care and Use Committee at University of South Florida, Division of Comparative Medicine.
(§4) Total RNA was isolated from 3T3L1 cells with RNA-Bee (Tel Test Center) as recommended by the manufacturer. RNA was also obtained from adipose tissues of mice fed with or without resveratrol. 2 μg RNA was used to synthesize first-strand cDNA with an Oligo(dT) primer and Omniscript R kit (Qiagen). The following primers were used in PCR: PKCδ forward primer 5′ […] 3′ (SEQ ID NO:1); reverse primer 5′ […] 3′ (SEQ ID NO:2). These primers amplified PKCδI and PKCδII simultaneously. PKCδII-specific antisense primer (5′ […]3′) (SEQ ID NO:3). β-actin forward primer 5′ […] 3′ (SEQ ID NO:4); reverse primer 5′ […] 3′ (SEQ ID NO:5). Following PCR, 5% of products were resolved on 6% PAGE gels and detected by silver staining. The PCR reaction was optimized for linear range amplification to allow for quantification of products. Densitometric analyses of the bands were done using the Un-Scan IT™ Analysis Software (Silk Scientific).

[7] = test system: SIRT1; settings: mice, 400 mg resveratrol; earlier studies (23); cited from earlier work
[8] = test system: PKCδI; assay: Western blot of PKCδI expression in differentiating 3T3L1 cells; format: cell-based, mouse
Procedure: as §1, §2

[9] = test system: PKCδII; assay: PCR of PKCδII in adipose tissue of mice fed resveratrol; format: in vivo, mouse; settings: 400 mg resveratrol per kg body weight in diet, once daily
Procedure: as §3, §4

[10] = test system: 3T3L1 adipocytes; assay: Oil Red O staining for lipid accumulation; format: cell-based, mouse; settings: 25 μM on day 4, Oil Red O staining on day 8
Procedure: as §1
3T3L1 preadipocytes were washed with PBS and fixed with 10% formalin for 30 minutes. The cells were then rinsed and incubated with 60% isopropanol for 5 minutes. Oil Red O stain (0.15%, Sigma) was added and incubated for 10 minutes. Images were captured with Nixon confocal microscope.

[11] = test system: PKCδ exon 9 5′ splice site II; assay: pSPL3-PKCδ splicing minigene RT-PCR; format: cell-based, mouse; settings: 200 nM SEAM, 24 hours after minigene transfection, harvested on day 2
Description: The pSPL3 vector was modified to remove cryptic 5′ splice sites as described in a previous publication (25). The pSPL3 vector was digested with BamHI (in the MCS) and NheI. Primers to amplify genomic PKCδ from 3T3L1 cells flanked mouse PKCδ exon 9 and were designed to include the BclI site in the forward primer (in bold type) and BcuI site in the reverse primers (in bold type). The forward primer was designed to amplify 137 bp of 3′ intronic sequence such that the product contained the branch point and 3′ splice site and the reverse primer included 284 bp 5′ intronic sequence and included the 5′ splice site II of exon 9. The primers were: forward primer 5′ […] 3′ (SEQ ID NO:6); reverse primer 5′ […] 3′ (SEQ ID NO:7). The product was verified by sequencing and ligated into the digested pSPL3 vector. The overhangs of the selected restriction enzymes can hybridize and this enabled cloning of the PCR product in the proper orientation. The resulting pSPL3-PKCδ minigene was verified by restriction digestion and sequencing.
Splicing minigenes are advantageous to study alternative splicing events without influence from endogenous factors. […] Utilization of 5′ splice site I on exon 9 gave rise to PKCδI while utilization of downstream 5′ splice site II gave rise to PKCδII. After 24 hours, the cells were treated with 200 nM SEAM. […]

[12] = test system: Bcl2; assay: Western blot of Bcl2 in 3T3L1 cells; format: cell-based, mouse; settings: SEAM treatment (200 nM)
Procedure: as §1
(§5) Protein lysates were obtained from 3T3L1 cells using lysis buffer containing proteases. Protein lysates (40 μg) were separated by SDS-PAGE with 10% gels. Proteins were electrophoretically transferred to nitrocellulose membranes, blocked with Tris-buffered saline containing 0.1% Tween 20 and 5% nonfat dried milk, washed, and incubated with a polyclonal anti-PARP (Upstate Biotechnology), anti-XIAP (AnaSpec), anti-Bcl2, anti-caspase 9 (Calbiochem), anti-Bcl-x (Santa Cruz Biotechnology), and anti-PKCδ (Cell Signaling) or antibody against the hinge-region of PKCδII (Patel lab (19)). […] Data was analyzed using AlphaView® software.

[13] = test system: cPKCs: α, βI, βII, γ; nPKCs: η, ε, θ; aPKCs: ζ, λ; assay: Immunoblotting for other PKC family isoforms (specificity); format: cell-based, mouse; settings: SEAM treatment (200 nM)
Procedure: as §1
Protein lysates were obtained from 3T3L1 cells using lysis buffer containing proteases. Protein lysates (40 μg) were separated by SDS-PAGE with 10% gels. […] Data was analyzed using AlphaView® software.
3-hydroxystilbene was modified by Mannich coupling to add bis-diethylaminomethyl group (described in Example 1). Several synthetic stilbenoids with structural modifications to the basic resveratrol structure were evaluated. […]

[14] = test system: Bcl-xL; assay: Western blot of Bcl-xL in 3T3L1 cells; format: cell-based, mouse; settings: SEAM treatment (200 nM)
Procedure: as §1, §5

[15] = test system: adiponectin; assay: Western blot of adiponectin in 3T3L1 cells; format: cell-based, mouse; settings: SEAM treatment, days 4 and 8
Procedure: as §1, §5

[16] = test system: 3T3L1 cells; assay: Cytotoxicity assay / cell viability; format: cell-based, mouse; settings: 200 nM SEAM in 3T3L1 cells
Procedure: WST-1 (Roche Molecular Biochemicals, IN) was added to 3T3L1 cells (in triplicate) that are treated without or with SEAM to a final concentration of 10% (vol/vol). Cells were incubated for 2 hours at 37° C. The formazon dye produced by viable cells was quantified using a spectrophotometer set at a wavelength of 440 nm and absorbance recorded for each well (reference wavelength, 690 nm).
Immunoblotting for PPARγ and adiponectin was also performed to determine whether SEAM affected differentiation of 3T3L1 cells. […] Total apoptosis was measured by flow cytometry using Annexin V-PI staining (FIG. 8d). To determine whether SEAM was toxic to cells, cell viability was evaluated upon treatment of 200 nM SEAM in 3T3L1 cells. Cytotoxicity was measured using the […] assay. This assay measures the reducing potential of the cell using a colorimetric reaction. Viable cells reduce the […] to a colored formazan product.

[17] = test system: PKCδII; assay: RT-PCR of PKCδII splicing/mRNA in differentiating 3T3L1 preadipocytes; format: cell-based, mouse
Procedure: as §1
Total RNA was isolated from 3T3L1 cells with RNA-Bee (Tel Test Center) as recommended by the manufacturer. RNA was also obtained from adipose tissues of mice fed with or without resveratrol. 2 μg RNA was used to synthesize first-strand cDNA with an Oligo(dT) primer and Omniscript R kit (Qiagen). The following primers were used in PCR: PKCδ forward primer 5′ […] 3′ (SEQ ID NO:1); reverse primer 5′ […] 3′ (SEQ ID NO:2). These primers amplified PKCδI and PKCδII simultaneously. […] Following PCR, 5% of products were resolved on 6% PAGE gels and detected by silver staining. The PCR reaction was optimized for linear range amplification to allow for quantification of products. […]

Oc1ccc(C=Cc2cc(O)cc(O)c2)cc1 [resveratrol, 3,5,4′-trihydroxystilbene]
PPARγ2 levels ([1]; 25 μM resveratrol, day 8): inhibition of PPARγ2 levels | decline of PPARγ1 levels ([1]; 25 μM resveratrol, day 8): 30% | adipocytes undergoing apoptosis ([2]; 25 μM on day 2, collected on day 8): 70% | decrease in PKCδII expression ([3]; 25 μM administered on day 0 (preadipocyte)): less than 10% | inhibition of PKCδII expression levels ([3]; read on day 6): 65% | inhibition of PKCδII expression levels ([3]; read on day 8): more than 90% | TNFα levels in adipose tissue [4]: decreased | effect on the cells ([5]; 100 μM resveratrol): detrimental to the cells | optimal dose [5]: 25 µM | increase in PKCδI expression in adipose tissue [6]: 25% | SIRT1 levels in adipose tissue [7]: increased | increase in PKCδI levels ([8]; 25 μM resveratrol, days 6 and 8): ≤ 50% | decrease in PKCδII expression in adipose tissue [9]: 70% | decline in lipid accumulation compared to control [10]: greater than 75%

CCN(CC)Cc1ccc(/C(C)=C(\C)c2ccc(CN(CC)CC)c(O)c2)cc1O [SEAM]
decrease of PPARγ2 compared to control ([1]; SEAM treatment, days 4 and 8): 5% | utilization of 5′ splice site II [11]: inhibited | apoptosis levels ([2]; 200 nM SEAM, Annexin V-PI staining): increased compared to control | decrease of Bcl2 levels [12]: 40% | expression levels of other PKC isoforms [13]: did not affect | decrease of BclxL levels [14]: 20% | decrease of adiponectin compared to control [15]: 20% | cell viability [16]: viable | PKCδI expression ([8]; 100 nM, data not shown): not affected | PKCδI levels ([8]; SEAM treatment (200 nM)): did not affect | inhibition of PKCδII splicing ([17]; 100 nM, data not shown): 60% | decrease of PKCδII compared to control cells ([17]; 200 nM): 80%
